Where no end group is shown, it is not given here.
Tests used:
fibroblasts (HFF-1) = experiment: Cell proliferation assay, HFF-1 fibroblasts; type: cell-based; conditions: 24 h
[1] = system: Pseudomonas aeruginosa (PA); experiment: Live-dead staining of bacteria (membrane damage); type: cell-based, Pseudomonas aeruginosa (ATCC 14213)
Experimental: FIG. 2 verifies the effects of exemplary variant peptides in disrupting bacterial membranes. To test whether exemplary peptide E1AM2 causes membrane damage in bacteria, live and dead staining of exemplary bacteria strain Pseudomonas aeruginosa (ATCC 14213, PA) are performed in the presence of different concentrations of E1AM2 peptide. […] Scale bar-3 μm. The lesser number of PA cells observed upon E1AM2 treatment at these concentrations is due to leaking of the bacteria caused by membrane disruption. Thus, peptide variants with the cationic arm show bacterial membrane disrupting ability. FIG. 2B provides a quantification of Syto-9 and PI-positive Pseudomonas aeruginosa (PA) cells 24 hours post E1AM2 treatment.
Scale bar=3 μm. […] The percentage of PA cells with (PI-positive, red) and without (Syto-9 stained, green) membrane damage following E1AM2 V8LQ19L peptide treatment are shown.
PA was treated with E1AM2 for 24 hours followed by live-dead saining in accordance to the manufacturers' instruction (LIVE/DEAD™ BacLight™ Bacterial Viability Kit, for microscopy & quantitative assays).

[2] = system: Staphylococcus aureus (SA); experiment: Antimicrobial resistance evolution assay, SA; type: cell-based; conditions: serial passaging; resistance = >4-fold MIC change
Source text: The development of antimicrobial resistance is defined by greater than a 4-fold change to their initial minimum inhibitory concentration (MIC) at day 1. Exemplary bacteria strains Pseudomonas aeruginosa (PA) and Staphylococcus aureus (SA) are subjected to continuous daily serial passaging over several days, with treatment of exemplary variant peptides E1AM2 (SEQ ID NO: 2) and Q19L (SEQ ID NO: […]) at subinhibitory concentrations. […] The treatments were discontinued when the MIC increased by more than four-fold from the initial MIC or when MIC reached >100 μM.
Briefly, sequential passaging of PA, and SA cells was done with sub-inhibitory concentrations of antibiotics or E1AM2 up to 4 weeks. The cells grown in those concentrations of antibiotics or peptides were diluted to A600 nm (OD600) of ~0.2 and serially passaged daily with the same concentrations at 37° C. with agitation at 24 h intervals.

Hemolysis assay = type: cell-based, human; conditions: human, red blood cells; at respective MIC/MBC concentrations; melittin 3.125 μM = 100%
Experimental: The hemolytic score of the peptide variants and pexiganan (SEQ ID NO: 54) are compared to a strong hemolytic peptide, melittin 12 as a control. […] The minimum peptide concentration corresponding to 10% hemolysis (minimal hemolysis concentration, HC) of E1AM2=50 μM, V8LQ19L=12.5 μM, V8LQ19L C-2=3.125 μM, and pexiganan=12.5 μM respectively. Readings of the melittin at 3.125 μM were normalised to 100%.
Examination of hemolytic activity of ultra-short peptides was performed by isolating the red blood cells (RBCs) from human blood samples by centrifugation (1000 g, 4° C., 10 min) and resuspension in 27 mL PBS. This washing step was repeated four times before the RBCs were diluted to a 10% (v/v) suspension. […] Hemolytic properties of E1AM2 and pexiganan were evaluated with melittin used as a positive control, and PBS as a negative control. The plates were incubated at 37° C., for 30 min and then centrifuged (1258 g, 4° C., 6 min). 75 μL of supernatant were transferred into a flat-bottom clear 96-well plate and the OD576 nm was read. Readings of the melittin sample at 3.125 μM were normalized to 100%.

[3] = system: Staphylococcus aureus (SA); experiment: Time-kill assay, Staphylococcus aureus; type: cell-based; conditions: for time to kill SA (in words): 1X MBC; for Time kill SA, >99% killing: at 1X MBC, * indicates killing within seconds
Experimental: The bactericidal abilities of the variant peptides are not only effective, but also fast-acting. […] The killing kinetics are detailed in Table 11 below.
Pseudomonas aeruginosa (PA) and Staphylococcus aureus (SA) strains were grown as per CLSI guidelines. AMPs were added to the bacterial cultures at their 1X MBC concentrations. Upon treatment, the bacterial cultures were enumerated for viable counts immediately within 1 min, 5 min, 15 min, 30 min and 60 min post-treatments.

[4] = system: critical and high priority pathogens (WHO); experiment: Antibacterial effect against WHO critical and high priority pathogens; type: cell-based; conditions: FIG. 10
[5] = system: Pseudomonas aeruginosa PA CRM-9027; experiment: Broth microdilution, PA CRM-9027 (ear-eye infections); type: cell-based, Pseudomonas aeruginosa (CRM-9027); conditions: PA CRM-9027
Experimental: (§1) Bacteria strains involved in lung infection in cystic fibrosis patients (PA-BAA 2110) and ear-eye infections (PA-CRM 9027) are treated with exemplary variant peptides, such as E1AM2 and Q19L.
(§2) Examination of the potency of modified short peptides against PA and SA strains was performed by using the broth microdilution protocol from the Clinical and Laboratory Standards Institute (CLSI) guidelines (CLSI 2012) as described. Briefly, five freshly plated bacteria colonies were grown in cation adjusted MH2 broth (BD Biosciences) in a shaker incubator at 37° C., 220 RPM. Cells were grown to an optical density (OD600) of ~0.2 measured using a Microplate Spectrophotometer (Molecular Devices Spectra Max Plus). 100 μL of microbial culture containing ~5×10^5 CFU/mL of bacteria in the respective broths were introduced into each well containing 100 μL of peptides and incubated overnight at 37° C. Next, to check the bactericidal effects, 100 μL from each well was transferred and spread on sterile MH2 agar plates. The plates were incubated overnight at 37° C. and the number of colonies forming units (CFU) were calculated the following day. Readings of bacteria grown in media without any treatments were normalized to 100% as media control. For the mixed infection study, three freshly plated bacteria colonies each from PA, SA and ST plates were grown together in cation adjusted MH2 broth and proceeded as described above.

[6] = system: Pseudomonas aeruginosa PA BAA-2110; experiment: Broth microdilution, PA BAA-2110 (lung infection in cystic fibrosis); type: cell-based, Pseudomonas aeruginosa (BAA-2110); conditions: PA BAA-2110
Experimental: as §1, §2

| Substance | HFF-1 proliferation (fibroblasts (HFF-1); certain concentrations) | cytotoxicity to HFF-1 (fibroblasts (HFF-1); up to highest tested concentrations (peptide), 3% (H2O2)) | mechanism of bacterial killing (live/dead) ([1]; FIG. 12) | development of antimicrobial resistance, SA [2] | hemolysis at 0.5 h (Hemolysis assay) | time to kill SA (in words) [3] | Time kill SA, >99% killing [3] | antibacterial effect against WHO priority pathogens [4] | MIC values against WHO priority pathogens (in words) ([4]; compared to pexiganan and antibiotics) | MBC [5] | MIC [5] | incorporation of propidium iodide (PI), membrane damage ([1]; at 1× MIC (3.125 μM) and 1X MBC (6.25 μM), 24 h) | MBC [6] | MIC [6] |
| --- | --- | --- | --- | --- | --- | --- | --- | --- | --- | --- | --- | --- | --- | --- |
| KKLLKKWLKLSKKALKLALSL-NH2 [V8LQ19L] | enhanced proliferation | noncytotoxic | primarily through membrane damage | effective in preventing the acquisition of AMR | ~0% | within seconds | 1* min | potent fast-acting, broad-spectrum antibacterial effect | the lowest minimum inhibitory concentration (MIC) values |  |  |  |  |  |
| E1AM2: untagged (E1AM2), KKLLKKWVKLSKKALKLAQSL |  |  |  |  |  | within minutes | 1 min |  |  | 3.125 µM | 3.125 µM | 100% | 6.25 µM | 3.125 µM |
